Tests used:
Fasciola hepatica [1] = assay: Fasciolicidal activity against Fasciola hepatica metacercariae infected in po dosed rat assessed as elimination of liver flukes administered as single dose; assay type: functional; conditions: read-out: MED
Fasciola hepatica [2] = assay: Fasciolicidal activity against Fasciola hepatica metacercariae infected in calves assessed as elimination of liver flukes at 15 mg/kg, po measured 8 weeks after infection; assay type: functional; conditions: 1344 h
Fasciola hepatica [3] = assay: Fasciolicidal activity against Fasciola hepatica metacercariae infected in rat assessed as elimination of liver flukes at 3.1 mg/kg, po administered as single dose; assay type: functional
Fasciola hepatica [4] = assay: Fasciolicidal activity against Fasciola hepatica metacercariae infected in sheep assessed as elimination of liver flukes at 2.5 mg/kg, po measured 16 weeks after infection; assay type: functional; conditions: 2688 h
Ovis aries = assay: Toxicity in Fasciola hepatica metacercariae infected in sheep assessed as induction of gross toxic reactions at 200 to 400 mg/kg, po administered as single dose; assay type: organism-based; parameters: dose 200-400 mg/kg, route oral; conditions: in vivo
Fasciola hepatica [5] = assay: Fasciolicidal activity against Fasciola hepatica metacercariae infected in sheep assessed as elimination of liver flukes at 15 mg/kg, po measured 6 weeks after infection; assay type: functional; conditions: 1008 h

Row | Structure (SMILES) | minimal effective dose (Fasciola hepatica [1]) | inhibition in vivo at 15 mg/kg (Fasciola hepatica [2]) | inhibition in vivo at 3.1 mg/kg (Fasciola hepatica [3]) | inhibition in vivo at 2.5 mg/kg (Fasciola hepatica [4]) | Activity (Ovis aries) | inhibition in vivo at 15 mg/kg (Fasciola hepatica [5])
1 | O=C(Nc1ccc(Oc2ccc(Cl)cc2)c(Cl)c1)c1cc(I)cc(I)c1O [RAFOXANIDE] | 3.1 mg/kg |  |  |  |  | 
2 | Nc1cc(C(Cl)=C(Cl)Cl)c(S(N)(=O)=O)cc1S(N)(=O)=O [CLORSULON] |  | > 90% | > 90% | 90% | Non-toxic | > 90%

From ChEMBL document CHEMBL3272045, “4-amino-6-(trichloroethenyl)-1,3-benzenedisulfonamide, a new, potent fasciolicide” (J Med Chem, 1977)
